Values quoted from earlier work in patent publication US20100151056A1, “DIETARY SUPPLEMENTS FOR DECREASING THE LATENT FOREIGN DNA LOAD” (priority 2008, published 2010).
Where two headings read alike, the source gives them in different places.

Tests used:
[1] = test system: EBV immediate-early protein Rta in P3HR1 cells
[2] = test system: HBV cccDNA in HepG2-N10 cells; conditions: 22.9 ug/ml
[3] = test system: KSHV latent genes (LANA-1, v-cyclin, v-FLIP)
B cells = conditions: 3 and 4 mM
LT1/LT2 promoter = conditions: BJAB cells, GA-treated vs untreated
AIF = conditions: KSHV-positive B cells, GA for 4 days
[4] = test system: KSHV-positive and uninfected B cells
[5] = test system: LANA-1, v-cyclin, and v-FLIP proteins
caspase cascade = conditions: KSHV-positive B cells untreated and GA-treated, ELISA
[6] = test system: Epstein-Barr virus in Raji cells; conditions: Raji cells superinfected with P2HR1 (LS) virus; read-out: concentration inhibiting EBV genome copy number and antigen expression by 50% (EC50)
cdk6 = conditions: BC-1, BCBL-1 and BC-3 cells, Western blot

SMILES: O=C(O[C@@H]1Cc2c(O)cc(O)cc2O[C@@H]1c1cc(O)c(O)c(O)c1)c1cc(O)c(O)c(O)c1 [EGCG, Epigallocatechin gallate]
- P3HR1 cells expressing Rta ([1]; 70 mM EGCG): 9.8%
- P3HR1 cells expressing Rta ([1]; 100 mM EGCG): 0.5%
- reduction of HBV cccDNA concentration [2]: 60%

SMILES: CC1(C)[C@@H](O[C@H]2O[C@H](C(=O)O)[C@@H](O)[C@H](O)[C@H]2O[C@@H]2O[C@H](C(=O)O)[C@@H](O)[C@H](O)[C@H]2O)CC[C@]2(C)[C@H]3C(=O)C=C4[C@@H]5C[C@@](C)(C(=O)O)CC[C@]5(C)CC[C@@]4(C)[C@]3(C)CC[C@@H]12 [GA, glycyrrhizic acid]
- LT1 transcripts (LANA-1 probe) ([3]; GA 3 and 4 mM, BCBL-1 2 days, BC-3 3 days, BC-2 and BC-1 6 days): dose-dependent decrease
- LT2 transcripts (v-FLIP and v-cyclin probes) ([3]; GA-treated KSHV-positive B cells): increase
- toxicity at the tested levels (B cells): not being toxic
- apoptosis in BJAB cells (KSHV-positive B cells; KSHV-negative BJAB control cells): did not result in apoptosis
- apoptosis (TUNEL-positive cells) (KSHV-positive B cells; KSHV-positive cells, FACS): 80-95%
- disruption of mitochondrial membranes or DNA condensation (KSHV-positive B cells; uninfected B cells treated with GA): no disruptions
- LT1/LT2 promoter activity (luciferase expression) (LT1/LT2 promoter): does not affect
- catalase activity increase (catalase; BC-1): 3 fold
- catalase activity increase (catalase; BC-3): 4 fold
- catalase activity increase (catalase; BCBL-1): 2 fold
- AIF localisation (AIF): diffuse nuclear staining
- cells blocked in G1 ([4]; KSHV-positive B cells, after 6 days GA): 99%
- cells blocked in G1 ([4]; uninfected cells, untreated or following GA): 25-50%
- LANA-1 expression ([5]; KSHV positive cells, BCBL-1, BC-3, BC-1 treated 2, 3, 6 days): decreased
- cells over-expressing v-cyclin ([5]; KSHV-positive B cells following GA treatment, FACS): 35-50%
- activation of the caspase cascade (caspase cascade): no activation
- EC50 [6]: ~5 µM
- increase of cdk6 expression (cdk6): 8- to 11 fold
- phosphorylated form of p53 (p53; BC-3 cells transfected with pLPCX/LANA-1, 4 mM GA for 4 days): very low concentration
- p53 phosphorylated at Ser15 (p53; KSHV-positive B cells following GA): high concentration

SMILES: CCCCCCCCCCCCCC(=O)O[C@@H]1[C@@H](C)[C@@]2(O)[C@@H](C=C(CO)C[C@]3(O)C(=O)C(C)=C[C@@H]23)[C@@H]2C(C)(C)[C@]12OC(C)=O [TPA, 12-O-tetradecanoyl-phorbol-13-acetate, reference compound]
- disruption of mitochondrial membranes or DNA condensation (KSHV-positive B cells; TPA treatment (latent to lytic switch)): did not disrupt

SMILES: CC(/C=C/C(=O)NO)=C\[C@@H](C)C(=O)c1ccc(N(C)C)cc1 [TSA, reference compound]
- P3HR1 cells expressing Rta ([1]; following treatment with TSA): 23.4%

SMILES: C[C@H]1[C@H](OC(=O)CCC(=O)O)O[C@@H]2O[C@@]3(C)CC[C@H]4[C@H](C)CC[C@@H]1[C@@]24OO3 [artesunate, Artesunate]
- viremia after completion of therapy (CMV; 76 days after completion of therapy): no increase in viremia
- viral decay T 1/2 (CMV; CMV load kinetics during treatment): 22 to 45.6 h
- decrease of viral DNA load (CMV; by day 7, oral 100 mg/day): 1.7-2.1 log
- adverse effects (CMV; first 30 days of treatment): no adverse effects
- time to rapid reduction in viral load and improved hematopoiesis (CMV; oral 100 mg/day): ≤ 10 days

SMILES: Nc1nc(O)c2ncn(COC(CO)CO)c2n1 [ganciclovir]
- reduction of viral DNA load (CMV; by day 7, initial ganciclovir treatment of the same patient): 1 log
